Reference: patent publication US7834025B2, “Substituted indolyl-alkyl-amino-derivatives as inhibitors of histone deacetylase” (Janssen Pharmaceutica N.V., priority 2006, dated 2010)
Converted amounts (≈) assume the structure as drawn. Like-named read-outs stand apart in the source and are kept apart here.

Key:
[1] = human, 15 min, 5 μM
[2] = Metabolic stability in liver microsomes; details: reference compounds; 15 min incubation with microsomes, 5 μM
[3] = Kinetic solubility in aqueous media (C.3.a); type: physicochemical; details: kinetic from dmso stock, aqueous buffer pH 7.4
Experimental: (§1) The solubility of a compound measures the ability of a compound to stay in solution. In the first method, the ability of a compound to stay in aqueous solution upon dilution (see example C.3.a) is measured. DMSO-stock solutions are diluted with a single aqueous buffer solvent in different consecutive steps. Mixtures are then scanned in the BD Gentest Solubility Scanner for the occurrence of precipitation. In the second method the solubility of a compound at different pH's can be measured with the use of a chemiluminescent nitrogen detector (see example C.3.b).
DMSO-stock solutions from 5000-9.8 μM (½ dilutions) are made in DMSO in a 96 well stock solution plate (200 μl per well). After each dilution the samples are mixed. Aliquots of these DMSO solutions (2 μl) are then transferred into 2 other 96 well buffer plates, containing 200 μl per well aqueous buffer. Each of the buffer plates contains either aqueous buffer pH 7.4 or aqueous buffer pH 4.0. After the last dilution the buffer plates are mixed and the samples are stabilized at room temperature for ½ hour. Dilution is done in duplicate for each compound to exclude occasional errors. Mixtures are then scanned in the BD Gentest Solubility Scanner for the occurrence of precipitation. Based on the absence/presence of precipitate in the mixtures the kinetic solubility is calculated by interpolation. Ranking is performed into the 3 classes.

[4] = tested on: human A2780 ovarian carcinoma cells; experiment: Antiproliferative activity on A2780 cells (MTT); type: cell-based; details: 96 h, four days of incubation, read-out: Cellular activity pIC50 C.2. (converted)
Experimental: Cellular activity of the compounds of formula (I) was determined on A2780 tumour cells using a […] assay for cell toxicity or survival (Mosmann Tim, Journal of Immunological Methods 65: 55-63, 1983)(see example C.2).
All compounds tested were dissolved in DMSO and further dilutions were made in culture medium. Final DMSO concentrations never exceeded 0.1% (v/v) in cell proliferation assays. Controls contained A2780 cells and DMSO without compound and blanks contained DMSO but no cells. MTT was dissolved at 5 mg/ml in PBS. A glycine buffer comprised of 0.1 M glycine and 0.1 M NaCl buffered to pH 10.5 with NaOH (1 N) was prepared (all reagents were from Merck).
The human A2780 ovarian carcinoma cells (a kind gift from Dr. T. C. Hamilton [Fox Chase Cancer Centre, Pa., USA]) were cultured in RPMI 1640 medium supplemented with 2 mM L-glutamine, 50 μg/ml gentamicin and 10% fetal calf serum. Cells were routinely kept as monolayer cultures at 37° C. in a humidified 5% CO2 atmosphere. Cells were passaged once a week using a trypsin/EDTA solution at a split ratio of 1:40. All media and supplements were obtained from Life Technologies. Cells were free of mycoplasma contamination as determined using the Gen-Probe Mycoplasma Tissue Culture kit (supplier: BioMérieux).
Cells were seeded in NUNC™ 96-well culture plates (Supplier: Life Technologies) and allowed to adhere to the plastic overnight. Densities used for plating were 1500 cells per well in a total volume of 200 μl medium. After cell adhesion to the plates, medium was changed and drugs and/or solvents were added to a final volume of 200 μl. Following four days of incubation, medium was replaced by 200 μl fresh medium and cell density and viability was assessed using an MTT-based assay. […] For each sample, the mean value for cell growth (in absorbance units) was expressed as a percentage of the mean value for cell growth of the control. […] Herein the effects of test compounds are expressed as pIC50 (the negative log value of the IC50-value)(see Table F-2).

[5] = target: histone deacetylase (HeLa nuclear extracts); experiment: In vitro assay for inhibition of histone deacetylase (Fluor de Lys, HeLa nuclear extracts); type: biochemical; details: HeLa nuclear extracts 60 μg/ml, 75 μM Fluor de Lys substrate
Source text: The in vitro assay for inhibition of histone deacetylase (see example C.1) measures the inhibition of HDAC enzymatic activity obtained with the compounds of formula (I).
The HDAC Fluorescent Activity Assay/Drug Discovery Kit of Biomol (cat. No: AK-500-0001) was used. The HDAC Fluorescent Activity Assay is based on the Fluor de Lys (Fluorogenic Histone deAcetylase Lysyl) substrate and developer combination. The Fluor de Lys substrate, comprises an acetylated lysine side chain. Deacetylation of the substrate sensitizes the substrate so that, in the second step, treatment with the Fluor de Lys developer produces a fluorophore.
HeLa nuclear extracts (supplier: Biomol) were incubated at 60 μg/ml with 75 μM of substrate. The Fluor de Lys substrate was added in a buffer containing 25 mM Tris, 137 mM NaCl, 2.7 mM KCl and 1 mM MgCl2.6H2O at pH 7.4. After 30 min, 1 volume of the developer was added. The fluorophore was excited with 355 nm light and the emitted light (450 nm) was be detected on a fluorometric plate reader. For each experiment, controls (containing HeLa nuclear extract and buffer), a blank incubation (containing buffer but no HeLa nuclear extract) and samples (containing compound dissolved in DMSO and further diluted in buffer and HeLa nuclear extract) were run in parallel. In first instance, compounds were tested at a concentration of 10^−5M. […] All sample were tested 4 times. In each test the blank value was subtracted from both the control and the sample values. The control sample represented 100% of substrate deacylation. For each sample the fluorescence was expressed as a percentage of the mean value of the controls. […] Herein the effects of test compounds are expressed as pIC50 (the negative log value of the IC50-value) (see Table F-2).

[6] = Solubility with chemiluminescent nitrogen detector (C.3.b); type: physicochemical; details: pH 2.3, aqueous buffer
Experimental: as §1
The solubility of a compound, at different pH's, can also be measured with the use of a chemiluminescent nitrogen detector (see Table F-2).

[7] = tested on: p21 promoter reporter A2780 clone tumour in nude mice; experiment: p21 induction capacity, in vivo method (tumour fluorescence); details: s.c. A2780 reporter clone, 20-40 mpk orally or intravenously daily during 6 days
Experimental: The last method is an in vivo method wherein mice are used for screening the pharmaceutical activity of a compound. The above described stably transformed tumour cells can be administered to mice in an amount sufficient to effect production of a tumour. After the tumour cells had sufficient time to form a tumour, a potentially active compound can be administered to the animals and the effect of said compound on the tumour cells is evaluated by measuring the expression of the reporter gene. Incubation with pharmaceutical active compounds will result in an increase of reporter gene expression compared to the control levels (see example C.6.b.)
A selected clone was injected subcutaneous (10^7 cells/200 μl) into the flank of nude mice and a calliper measurable tumour was obtained after 12 days. From day 12 on, animals were dosed, orally or intraveinally, daily during 6 days with solvent and 20-40 mpk compound (4-10 animals each). Tumours were evaluated for fluorescence by the in-house developed Automated Whole Body Imaging System (Fluorescent stereomicroscope type Olympus® SZX12 equipped with a GFP filter and coupled to a CCD camera type JAI® CV-M90 controlled by a software package based on the IMAQ Vision Software from National Instruments®).

Row | melting point [°C] | solubility at 0.5 h [3] [µM] | IC50 [4] [nM] | Enzymatic activity pIC50 C.1. [5] | SMILES | other results
1 | 70 |  |  |  | Cn1cc(C2CCN(CC3CCN(c4ccc(C(=O)NO)cn4)CC3)C2)c2ccccc21 (stereo not drawn) [Compound 4] | 
2 | 90 |  |  |  | Cn1cc(C2CCN(CC3CCN(c4ccc(C(=O)Nc5ccccc5N)cn4)CC3)C2)c2ccccc21 (stereo not drawn) [Compound 5] | 
3 | 224 | 15.6 (≈ 7 µg/mL) | 31.6 | 8.3 | Cn1cc(C2CCCN(CC3CCN(c4ncc(C(=O)NO)cn4)CC3)C2)c2ccccc21 (stereo not drawn) [Compound 3] | 

More lines, now with the values behind:

Row | SMILES | melting point [°C] | solubility at 0.5 h [3] [µM] | IC50 [4] [nM] | Enzymatic activity pIC50 C.1. [5] | other results
4 | COc1cc(N)c(Cl)cc1C(=O)NC1CCN(CCCOc2ccc(F)cc2)CC1OC (stereo not drawn) [Cisapride] |  |  |  |  | % metabolism [1]: 45%
5 | CCCO [propanol] |  |  |  |  | % metabolism [2]: 25%
6 | CC(NCC1CCN(c2ncc(C(=O)NO)cn2)CC1)c1cn(C)c2ccccc12 (stereo not drawn) [Compound 1] | 296 | 7.8 (≈ 3.19 µg/mL) | 31.6 | 9.0 | 
7 | Cn1cc(C2CCN(CC3CCN(c4ncc(C(=O)NO)cn4)CC3)C2)c2ccccc21 (stereo not drawn) [Compound 2] | 231 | 9.4 (≈ 4.08 µg/mL) | 50.1 | 8.9 | solubility [6]: 1350 µg/mL (≈ 3.11 mM); Tumour fluorescence (reporter gene expression) versus control [7]: increased fluorescence as compared to control
